Experimental data as given in patent US6077872A (priority 1998, dated 2000).
Read-outs that look alike come from different tables or passages of the source.

Legend:
[1] = test system: ovariectomized rats with osteoporosis; conditions: for Y (flexibility, tenacity): model-control 4.0 ± 1.1; for P (maximum of force at yielding point, femur strength): model-control 6.7 ± 1.2; for S (work to yield or break femur): model-control 11.3 ± 4.7
Experimental: Female rats at the age of 3 months were excised of bilateral ovaries under sterilized condition, and were then fed low-calcium diet and offered with deionized water for 75 days, thus made an osteoporosis model.
Seventy healthy rats were selected and divided randomly into five groups of 14 rats. […] Group 1-5 were administered one time per day and 6 times per week and were also fed low-calcium diet and de-ionized water. The test period was 75 days. When the test was finished, rats were killed by bleeding from bilateral thigh arteries, the separated serum was used for measurement of biochemical parameters such as Ca, P, and AKP and Tr-ACP levels in serum. The bilateral femurs of rats were stripped off and stored in refrigerator. After the measurement of the bone mineral density, the left femur was stored for analysis of biomechanical characteristics. The right femur was stored for analysis of Ca content in femur.
(§1) Three-point bending test was done on the fresh femur iced in refrigerator with a Model WD-1 Electron Universal Test Machine under the following conditions: a span of 2.5 cm, a 25 kg sensor (1/50), a speed of 2 mm/minute. The function of load versus flexibility was recorded by a finction recorder, wherein P represented the maximum of force at yielding point, Y was flexibility indicating the tenacity of materials. K, as the rate of slope, was a rigidity parameter of materials and was associated with the degree of calcification in bone mechanics. S stood for the work to yield or break femur.

[2] = test system: castrated male rats with osteoporosis; conditions: for length of femur: model 3.26 ± 0.09; for ash weight of femur: model 187.5 ± 18.0; for calcium content of femur: model 245.1 ± 25.7; for dry weight of femur: model 360.0 ± 32.1; for wet weight of femur: model 638.3 ± 57.6
Experimental: After pulled off soft tissue, the right femur was dried for 5 hours in oven at the temperature of 120° C. until its weight kept a constant (dry weight), then the product was baked for 6 hours in muffle furnace at the temperature of 800° C. until the weight of the product kept a constant which was the ash weight, namely the total amount of inorganic salts. After part of the ash was resolved in dilute hydrochloride, the calcium content of ash was measured by the method of EDTA titration. All data was expressed as X±SD(n). The significance of differences between groups were assessed using the "T-test" method of two groups of small specimen.
(§2) In this test, the measuring methods for serum Ca, P, AKP levels, the bone mineral density, the length of femur, wet weight, dry weight, ash weight, the calcium content and the biomechanics of femur were all the same as in test II.

[3] = in vivo; conditions: rat, in vivo
From the text: (2) apparatus: Model WFX-1B Spectrophotometer of Atomic Absorption was produced by The Second Optical Apparatus Factory of Beijing, 83114; P-E 3030 Spectrophotometer of Atomic Absorption was produced by Perkin-Elmer Corp.,USA;DT-100 Single-Pan Balance (1/10^4) was produced by Beijing Optical Apparatus Factory; TJ-6 Centrifuge was produced by Beckman, USA; Model MVS-1 Vortex Mixer was produced by Beijing Beide Scientific Apparatus and Materials Co. Ltd.
Twelve hours after the animals had been fasted, 0.5 mL plasma was sampled by excising eyeballs. The plasma was established as the blank group. Then rats were administered agents once in an amount of 20 mL/kg body weight by pouring into the stomach. 0.5 mL plasma was sampled by taking from eyeballs 0.25,0.5,1,1.5,2,3,4,6,8,12 and 16 hours later after the administration. […] The concentration of calcium was measured by a Model WFX-1B Spectrophotometer of Atomic Absorption.

[4] = test system: castrated male rats with osteoporosis; conditions: for bone mineral density F50: model-control 0.235 ± 0.022; for bone mineral density F20: model-control 0.244 ± 0.025
From the text: (4) Measurement of bone mineral density.

[5] = test system: rickets-mice; assay: Preventing rickets in younger mice: serum Ca, AKP, P; type: in vivo, mice of Kunming species; conditions: for serum Ca / serum P / serum AKP (in Bessey-Loury unit): 60 days; for serum Ca: model 1.55 ± 0.42; for serum P: model 2.23 ± 0.52; for serum AKP (in Bessey-Loury unit): model 101 ± 34
Experimental: The mice were bred for 60 days under conditions of avoiding light around-the-clock, at a temperature of 20-25° C. and a relative humility of 40-60% while the normal-control group mice were fed ordinary diet and water and were placed in non-dark room.
The low-calcium diet used in this test was the same as that in Test II but VD in the vitamin mixture was replaced by glucose.
Some weanling mice were placed in dark room and fed VD -deficient low-calcium diet and drunk de-ionized water for 60 days, thus a ricket model of baby mice was prepared. While other weanling mice were placed in non-dark room and fed ordinary diet and drunk tap water for 60 days, these mice were established as normal-control group.

[6] = in vivo; conditions: dog, po, 200 mg/kg
[7] = Solubility of calcium L-threonate; type: physicochemical
[8] = test system: rickets-babies
Experimental: Fourty rickets-babies at the age of 3-10 months were randomly divided into 2 groups of 20 babies each. […] Test group II, namely the calcium carbonate group, were administered orally calcium carbonate twice a day in a dosage of one bag each time.
(2) Biochemical examinations of blood. Venous blood of rickets-baby was sampled before and after the beginning of test and serum Ca, P and AKP level were measured and the product of [Ca]×[P] was calculated.
(3) Data processing: All data was statistically analyzed using the method of direct calculation of probability, grouping t-test and pairing t-test.
Considering the difficulty in sampling blood from rickets-babies during the test operation, blood sampling was not performed at the second week after the beginning of the test. Blood sampling was only performed before the test and at the fourth week after the beginning of the test.

[9] = test system: castrated male rats with osteoporosis; conditions: for K (calcification of bone): model-control 1.50 ± 0.26; for P (strength of femur): model-control 5.2 ± 1.1; for Y (flexibility, tenacity): model-control 8.0 ± 1.2; for S (work to break the bone): model-control 24.5 ± 7.5
Experimental: as §1
In this test, chemicals were the saine as in test II, animals were male Wistar rats each weighing 150±10 g and were provided by Animal Center of the National Institute for the Identification of Pharmaceuticals and Biological Products, Beijing. The breeding of the rats was the same as in test II.
The male rats each weighing 150±10 g were excised of bilateral spermaries and were fed low-calcium diet and offered deionized water for 60 days, thus made a model of osteoporosis.
Seventy of the castrated male rats were divided into groups and tested in the same manner as Test II but the days of administration were 52 days during the 60 days of test.
as §2

[10] = 2.31 g/kg/d (300 mg calcium; Caltrate-D 0.65 g/kg/d)
[11] = after four weeks of Ca-supplementing

O=C(O)[C@H](O)[C@@H](O)CO [calcium L-threonate]
K (rigidity parameter, calcified degree) ([1]; 100 mg element calcium/kg/d): 2.71 ± 0.36 | Y (flexibility, tenacity) ([1]; 100 mg element calcium/kg/d): 4.1 ± 0.7 | P (maximum of force at yielding point, femur strength) ([1]; 100 mg element calcium/kg/d): 7.9 ± 1.0 | S (work to yield or break femur) ([1]; 100 mg element calcium/kg/d): 14.0 | K (rigidity parameter, calcified degree) ([1]; 200 mg element calcium/kg/d): 2.75 ± 0.31 | Y (flexibility, tenacity) ([1]; 200 mg element calcium/kg/d): 5.3 ± 1.4 | P (maximum of force at yielding point, femur strength) ([1]; 200 mg element calcium/kg/d): 8.5 ± 0.8 | Y (flexibility, tenacity) ([1]; 300 mg element calcium/kg/d): 5.9 ± 1.2 | P (maximum of force at yielding point, femur strength) ([1]; 300 mg element calcium/kg/d): 9.6 ± 1.7 | S (work to yield or break femur) ([1]; 300 mg element calcium/kg/d): 29.4 | length of femur ([2]; 0.76 g/kg/d): 3.34 ± 0.05 cm | ash weight of femur ([2]; 0.76 g/kg/d): 233.1 ± 19.76 mg | calcium content of femur ([2]; 0.76 g/kg/d): 267.0 | dry weight of femur ([2]; 0.76 g/kg/d): 416.7 ± 29.7 g | wet weight of femur ([2]; 0.76 g/kg/d): 688.4 ± 47.4 g | length of femur ([2]; 1.54 g/kg/d): 3.34 ± 0.08 cm | ash weight of femur ([2]; 1.54 g/kg/d): 269.66 ± 23.4 mg | calcium content of femur ([2]; 1.54 g/kg/d): 268.2 | dry weight of femur ([2]; 1.54 g/kg/d): 458.1 ± 39.1 g | wet weight of femur ([2]; 1.54 g/kg/d): 720.2 ± 69.7 g | length of femur [2, 10]: 3.35 ± 0.09 cm | ash weight of femur [2, 10]: 278.2 ± 31.8 mg | calcium content of femur [2, 10]: 266.7 | dry weight of femur [2, 10]: 473.4 ± 57.2 g | wet weight of femur [2, 10]: 747.3 ± 95.2 g | femur length, weights and calcium content (in words) ([2]; rat, in vivo): markedly higher femur length, wet weight, dry weight, ash weight and calcium content than those of the model group rats | absorption rate constant ka [3]: 6.14 h⁻¹ | CL/F ([3]; po): 17.3 mL/min/kg | Vd/F ([3]; po): 6.69 L/kg | AUC ([3]; po, 200 mg/kg): 192 µg·h/mL | Cmax ([3]; po, 200 mg/kg): 27200 ng/mL | half-life ([3]; po, 200 mg/kg): 4.45 h | Tmax ([3]; po, 200 mg/kg, Tmax): 0.797 h | bone mineral density F50 ([4]; 100 mg element calcium/kg/d): 0.255 ± 0.025 BMC/BW | bone mineral density F20 ([4]; 100 mg element calcium/kg/d): 0.297 ± 0.037 BMC/BW | bone mineral density F50 ([4]; 200 mg element calcium/kg/d): 0.269 ± 0.019 BMC/BW | bone mineral density F20 ([4]; 200 mg element calcium/kg/d): 0.308 ± 0.020 BMC/BW | bone mineral density F50 ([4]; 300 mg element calcium/kg/d): 0.274 ± 0.018 BMC/BW | bone mineral density F20 ([4]; 300 mg element calcium/kg/d): 0.327 ± 0.033 BMC/BW | serum Ca ([5]; 200 mg calcium element): 2.33 ± 0.82 mmol/L | serum P ([5]; 200 mg calcium element): 1.52 ± 0.45 mmol/L | serum AKP (in Bessey-Loury unit) ([5]; 200 mg calcium element): 59.3 ± 14 U/L | serum Ca ([5]; 300 mg calcium element): 2.17 ± 0.82 mmol/L | serum P ([5]; 300 mg calcium element): 1.35 ± 0.34 mmol/L | serum AKP (in Bessey-Loury unit) ([5]; 300 mg calcium element): 43.1 ± 14 U/L | serum Ca effect (in words) ([5]; high and low dosage): approximate to that of the normal-control group but were much higher than those of the model group | serum AKP effect (in words) ([5]; mouse, in vivo): much lower than those of the model group | Tmax [6]: 1.21 h | concentration at 0.5 h [6]: 23100 ± 2680 ng/mL | concentration at 1 h [6]: 35900 ± 4410 ng/mL | concentration at 2 h [6]: 74040 ± 500 ng/mL | concentration at 3 h [6]: 46000 ng/mL | concentration at 4 h [6]: 17200 ng/mL | concentration at 6 h [6]: 9990 ng/mL | concentration at 8 h [6]: 4660 ng/mL | concentration at 12 h [6]: 2800 ng/mL | concentration at 16 h [6]: 4300 ng/mL | concentration at 24 h [6]: 3990 ng/mL | half-life [6]: 3.57 h | solubility in alcohol, ether and chloroform ([7]; alcohol, ether, chloroform): not in alcohol, ether and chloroform | solubility in water ([7]; water): can be solved in water | percentage of babies whose AKP reached the normal range [8, 11]: 90% | percentage of babies whose [Ca] × [P] reached the normal range [8, 11]: 100% | percentage of babies whose serum P reached the normal range [8, 11]: 100% | serum Ca change (in words) ([8]; before and after the test, P>0.05): no significant variation | serum P and AKP after test versus normal range (in words) ([8]; four weeks): raise the indexes to the normal range of value | serum P ([8]; four weeks after, before 3.19 ± 0.25 (threonate), 3.12 ± 0.20 (carbonate)): 4.50 ± 0.26 | serum Ca ([8]; four weeks after, before 10.49 ± 0.39 (threonate), 10.51 ± 0.47 (carbonate)): 10.65 ± 0.35 | [Ca] × [P] ([8]; four weeks after, before 33.4 ± 2.47 (threonate), 33.83 ± 2.17 (carbonate)): 47.34 ± 3.15 | AKP ([8]; four weeks after, before 235.95 ± 7.89 (threonate), 235.25 ± 7.37 (carbonate)): 203.75 ± 11.46 | K (calcification of bone) ([9]; 100 mg element calcium/kg/d): 2.05 ± 0.25 | P (strength of femur) ([9]; 100 mg element calcium/kg/d): 7.6 ± 1.1 | Y (flexibility, tenacity) ([9]; 100 mg element calcium/kg/d): 7.3 ± 1.6 | S (work to break the bone) ([9]; 100 mg element calcium/kg/d): 29.7 | K (calcification of bone) ([9]; 200 mg element calcium/kg/d): 2.27 ± 0.42 | P (strength of femur) ([9]; 200 mg element calcium/kg/d): 8.7 ± 1.2 | Y (flexibility, tenacity) ([9]; 200 mg element calcium/kg/d): 6.6 ± 1.1 | S (work to break the bone) ([9]; 200 mg element calcium/kg/d): 28.3 | K (calcification of bone) ([9]; 300 mg element calcium/kg/d): 2.52 ± 0.22 | P (strength of femur) ([9]; 300 mg element calcium/kg/d): 9.3 ± 0.9 | Y (flexibility, tenacity) ([9]; 300 mg element calcium/kg/d): 6.3 ± 1.0 | S (work to break the bone) ([9]; 300 mg element calcium/kg/d): 28.7 ± 7.8 | P,K,S values (in words) ([9]; rat, in vivo): markedly increased in contrast to those of the model group rats
